The values that follow come from US8188221B2, “Peptide homing to brain tumors” (Burnham Institute for Medical Research, priority 2008, dated 2012).

Holding throughout (assay type): in vivo, mice
In experiment [1] the test system is intracranial HIF-1alfa KO (HIFko) tumor. The experiment can be described thus: Homing of phage displaying CGLSGLGVA to intracranial islet tumors (phage titration of organs). As to conditions: peptide displayed on phage, 10^9 pfu into tail vein, 15 min circulation, perfusion, FIG. 1. The method, then:
CGLSGLGVA or a control phage (10^9 pfu=plaque forming unit) were injected into the tail vein of intracranial HIF-1alfa KO (HIFko) tumor-bearing mice. After 15 min of circulation the mice were perfused through the heart with saline to remove unbound phage followed by excision of tumor containing brain, normal brain, liver, kidney and lungs. The number of phage homed to those organs were determined by titration.

Experiment [2] has as its system VEGF overexpressing (VEGF+) tumor. The experiment can be described thus: Homing of fluorescein-conjugated peptide to intracranial VEGF-overexpressing tumors (histology). As to conditions: 10 μg into tail vein, 60 min circulation, FIG. 3A. The method, then:
Fluorescein-conjugated CGLSGLGVA peptide (10 μg) was injected into the tail vein of VEGF overexpressing (VEGF+) tumor-bearing mice. After 60 min of circulation tumor was excised and prepared for histological analysis. Peptide was visualized by using an antibody against fluorescein (rabbit anti-FITC, Zymed Laboratories). FIG. 3A. […] 3B: Same microscopic field as in 3A. Nuclei were visualized by DAPI staining (blue).

Experiment [3] concerns human U87MG intracranial xenograft. As to the kind of experiment: Homing and localization of fluorescein-conjugated peptide in intracranial U87MG tumors (histology, PECAM-1 co-staining). The method, then: (§1) Fluorescein-conjugated CGLSGLGVA peptide (10 μg) was injected into tail vein of murine HIFko or human U87MG intracranial xenograft bearing mice. After 60 min of circulation tumor-containing brain was excised and prepared for histological analysis. Peptide was visualized by using an antibody against fluorescein (rabbit anti-FITC, Zymed Laboratories). […] Nuclei were visualized by DAPI staining (blue).
Fluorescein-conjugated CGLSGLGVA peptide (10 μg) was injected into the tail vein of intracranial human U87MG tumor-bearing mice. After 60 min of circulation tumor-containing brain was excised and prepared for histological analysis. Peptide was visualized by using an antibody against fluorescein (rabbit anti-FITC, Zymed Laboratories). […] Magnification in FIG. 6A, 200×; FIG. 6B, 400×.

In experiment [4] the test system is intracranial HIFko islet tumors. As to the kind of experiment: Homing of fluorescein-conjugated peptide to intracranial HIFko islet tumors (histology, anti-FITC). As to conditions: 10 μg into tail vein, 60 min circulation. How it is done: Fluorescein-conjugated CGLSGLGVA peptide (10 μg) was injected into tail vein of HIFko tumor-bearing mice. After 60 min of circulation tumor-containing brain was excised and prepared for histological analysis. Peptide was visualized by using an antibody against fluorescein (rabbit anti-FITC, Zymed Laboratories). […] Presence of the tumor cells was confirmed by staining for the SV40 T-antigen specific for tumor cells from a subsequent section (green in FIG. 2B). FIGS. 2C and 2D show the same microscopic field as 2A and 2B. Nuclei were visualized by DAPI staining (blue).
as §1

Another experiment has as its system subcutaneous HIFko tumor. The experiment can be described thus: Homing of fluorescein-conjugated peptide to subcutaneous HIFko tumors (histology). As to conditions: 10 μg into tail vein, 60 min circulation, FIG. 4A. How it is done: Fluorescein-conjugated CGLSGLGVA peptide (10 μg) was injected into the tail vein of subcutaneous HIFko tumor-bearing mice. After 60 min of circulation tumor was excised and prepared for histological analysis. Peptide was visualized by using an antibody against FITC (rabbit anti-FITC, Zymed Laboratories). FIG. 4A. […] FIG. 4B. Same microscopic field as in FIG. 4A. Nuclei were visualized by DAPI staining (blue).

Ends that are not written are not given here.

“CGLSGLGVA [novel nine amino acid long tumor-homing peptide]”: in experiment [1], the “homing of phage to tumor containing brain versus normal brain, liver, kidney and lungs” value is recorded as “very specifically homes to the intracranial, early stage astrocytoma model (HIFko)”.

As to “Fluorescein-conjugated CGLSGLGVA peptide: CGLSGLGVA peptide conjugated to fluorescein, detected with anti-FITC antibody (also: fluorescein conjugate)”, the “detection of peptide in tumor tissue” value (in experiment [2]; in the experiment with subcutaneous HIFko tumor) was “not detected in the tumor tissue” throughout. Further, the homing to tumor result in experiment [3] (U87MG human glioblastoma xenografts, intravenous injection into the tail vein) is recorded as “homes to the U87MG human glioblastoma xenografts”. For the same substance, the “homing pattern of peptide in tumor” value is “peptide distribution resembled that of blood vessels” in experiment [3] (human U87MG intracranial xenograft, 10 μg into tail vein, 60 min circulation, FIG. 5B) and “detected diffusively in the whole tumor tissue” in experiment [4] (murine HIFko intracranial tumor, FIG. 5A). In addition, in experiment [3] (intracranial U87MG tumor, 10 μg into tail vein, 60 min circulation, FIG. 6), the “colocalization with endothelial cell marker PECAM-1” value is “did not colocalize with the blood vessel marker PECAM-1”. For the same substance, the “detection of peptide in tumor islets and surrounding normal brain” value in experiment [4] (FIG. 2) was “detected only in the tumor islets and not in the surrounding normal brain tissue”.
